Structures are written as SMILES.

The target in this assay is T1, Human CXCR3 (N-delta 4) (Homo sapiens, UniProt P49682).
T1 construct: CD8 leader (N); Flag tag; expressed in transfected cells; membranes prepared
T1 sequence (P49682 5-368 limits assumed): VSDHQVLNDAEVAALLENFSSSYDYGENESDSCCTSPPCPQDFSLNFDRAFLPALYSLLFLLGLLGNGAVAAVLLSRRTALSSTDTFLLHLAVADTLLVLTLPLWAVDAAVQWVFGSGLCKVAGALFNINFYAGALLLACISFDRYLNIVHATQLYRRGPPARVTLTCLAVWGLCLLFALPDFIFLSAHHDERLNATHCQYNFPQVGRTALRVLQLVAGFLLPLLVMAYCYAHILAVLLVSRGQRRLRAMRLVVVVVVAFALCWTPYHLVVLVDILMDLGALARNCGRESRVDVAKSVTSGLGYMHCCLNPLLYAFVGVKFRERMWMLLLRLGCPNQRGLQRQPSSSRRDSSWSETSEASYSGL
The assay can be described thus: Human CXCR3 (N-delta 4) scintillation proximity assay (SPA), [125I] IP-10 binding to Ba/F3-hCXCR3 membranes. The following applies: IC50 rating; 25 pM [125I] IP-10, membranes of Ba/F3 cells expressing human CXCR3 (N-delta 4). The source says:
The inventive compounds can readily be evaluated to determine activity at The CXCR3 receptors by known methods, such as, for example, Development of Human CXCR3 (N-delta 4) Binding Assay.
Cloning and Expression of Human CXCR3 (N-delta 4):
The DNA encoding human CXCR3 was cloned by PCR using human genomic DNA (Promega, Madison, Wis.) as a template. The PCR primers were designed based on the published sequence of human orphan receptor GPR9 (1) with incorporated restriction sites, a Kozak consensus sequence, CD8 leader and Flag tag. The PCR product was subcloned into the mammalian expression vector pME18Sneo, a derivative of the SR-alpha expression vector (designated as pME18Sneo-hCXCR3 (N-delta 4).
IL-3-dependent mouse pro-B cells Ba/F3 were transfected by electroporation in 0.4 ml Dulbecco's PBS containing 4×10^6 cells with 20 μg of pME18Sneo-hCXCR3 (N-delta 4) plasmid DNA. Cells were pulsed at 400 Volts, 100 OHMs, 960 μFd. The transfected cells were under selection with 1 mg/ml G418 (Life Technologies, Gaithersburg, Md.). G418-resistant Ba/F3 clones were screened for CXCR3 expression by specific binding of [^125I] IP-10 (NEN Life Science Products, Boston, Mass.).
Preparation of Ba/F3-hCXCR3 (N-delta 4) Membranes
Ba/F3 cells expressing human CXCR3 (N-delta 4) were pelleted and resuspended in the lysis buffer containing 10 mM HEPES, pH 7.5 and Complete® protease inhibitors (1 tablet per 100 ml) (Boehringer Mannheim, Indianapolis, Ind.) at a cell density of 20×10^6 cells per ml. After 5 minutes incubation on ice, cells were transferred to 4639 cell disruption bomb (Parr Instrument, Moline, Ill.) and applied with 1,500 psi of nitrogen for 30 minutes on ice. Large cellular debris was removed by centrifugation at 1,000×g. Cell membrane in the supernatant was sedimented at 100,000×g. The membrane was resuspended in the lysis buffer supplemented with 10% sucrose and stored at −80° C. Total protein concentration of the membrane was determined by BCA method from Pierce (Rockford, Ill.).
Human CXCR3 (N-delta 4) Scintillation Proximity Assay (SPA)
For each assay point, 2 μg of membrane was preincubated for 1 hr with 300 μg wheat germ agglutinin (WGA) coated SPA beads (Amersham, Arlington Heights, Ill.) in the binding buffer (50 mM HEPES, 1 mM CaCl2, 5 mM MgCl2, 125 mM NaCl, 0.002% NaN3, 1.0% BSA) at room temperature. The beads were spun down, washed once, resuspended in the binding buffer and transferred to a 96-well Isoplate (Wallac, Gaithersburg, Md.). 25 pM of [^125I] IP-10 with tested compounds in a series of titration were added to start the reaction. After 3 hr reaction at room temperature, the amount of [^125I] IP-10 bound to the SPA beads was determined with a Wallac 1450 Microbeta counter.
The Ki values for the various example compounds of the present invention are given in the afore-mentioned Table 1. From these values, it would be apparent to the skilled artisan that the compounds of the invention have excellent utility CXCR3 antagonists.
In general terms: SPA uses beads or plates that emit light when radiolabelled molecules are held near them.

Turning to `CC[C@H]1CN(c2nc(N)c(C(=O)NCC(C)O)nc2Cl)CCN1C1CCN(C(=O)c2ccc(Cl)nc2N)CC1` (stereo partly drawn) [compound 25], the half-maximal inhibitory concentration (IC50) – broadly, the midpoint of a concentration-inhibition curve – is less than 25 nM. With `CC[C@H]1CN(c2nc(N)c(C(=O)N/C(N)=N/C#N)nc2Cl)CCN1C1CCN(C(=O)c2ccc(Cl)nc2N)CC1` [compound 90] the figure was more than 100 nM; with `CC[C@H]1CN(c2nc(N)c(C(=O)NCCO)nc2Cl)CCN1C1CCN(C(=O)c2cc(F)c(Cl)nc2Cl)CC1` [compound 22], less than 25 nM; with `CC[C@H]1CN(c2nc(N)c(C(=O)NC(=N)N3CCCC3)nc2Cl)CCN1C1CCN(C(=O)c2ccc(Cl)nc2N)CC1` [compound 95], more than 100 nM. Compound `CC[C@H]1CN(c2ncc(C(=O)NCCO)nc2C(F)(F)F)CCN1C1CCN(C(=O)c2ccc(Cl)nc2N)CC1` [compound 180] had a half-maximal inhibitory concentration (IC50) of less than 25 nM. `CC[C@H]1CN(c2nc(N)c(C(=O)NC3CCC(O)CC3)nc2Cl)CCN1C1CCN(C(=O)c2ccc(Cl)nc2N)CC1` (stereo partly drawn) [compound 93]: the half-inhibitory concentration (IC50) is more than 100 nM. With `CC[C@H]1CN(c2nc(N)c(C(=O)NCCO)nc2Cl)CCN1C1CCN(C(=O)c2ccc(C(F)(F)F)nc2Cl)CC1` [compound 68] the figure was 25 to 100 nM. Next, `CC[C@H]1CN(c2nc(N)c(C(=O)NC)nc2Cl)CCN1C1CCN(C(=O)c2ccnc(Cl)c2)CC1` [compound 110]: more than 100 nM; `CC[C@H]1CN(c2nc(N)c(C(=O)NC3CC3)nc2Cl)CCN1C1CCN(Cc2c(C)nn(C)c2C)CC1` [compound 81]: more than 100 nM; `CC[C@H]1CN(c2nc(N)c(C(=O)O)nc2Cl)CCN1C1CCN(C(=O)c2ccc(Cl)nc2N)CC1` [compound 109]: more than 100 nM. Next, `CC[C@H]1CN(c2ncc(C(=O)NC(C)(C)C)nc2Cl)CCN1C1CCN(C(=O)c2ccc(Cl)nc2N)CC1` [compound 120]: less than 25 nM; `CCNC(=O)NCc1nc(Cl)c(N2CCN(C3CCN(C(=O)c4ccc(Cl)nc4N)CC3)[C@@H](CC)C2)nc1N` [compound 47]: less than 25 nM. As for `CC[C@H]1CN(c2nc(N)c(C(=O)NC3CC3)nc2Cl)CCN1C1CCN(C(=O)c2ccc(Cl)nc2Cl)CC1` [compound 19], the IC50 was less than 25 nM. With `CC[C@H]1CN(c2nc(N)c(C(=O)NCc3ccco3)nc2Cl)CCN1C1CCN(C(=O)c2ccc(Cl)nc2N)CC1` [compound 57] the figure was 25 to 100 nM; with `CC[C@H]1CN(c2nc(N)c(C(=O)NCCO)nc2Cl)CCN1C1CCN(C(=O)c2cnc(Cl)nc2C(F)(F)F)CC1` [compound 79], more than 100 nM; with `CC[C@H]1CN(c2ncc(C(N)=O)nc2C(F)(F)F)CCN1C1CCN(C(=O)c2ccc(Cl)nc2N)CC1` [compound 121], less than 25 nM.

As for `CC[C@H]1CN(c2nc(N)c(C(=O)N[C@@H]3CCC[C@H]3O)nc2Cl)CCN1C1CCN(C(=O)c2ccc(Cl)nc2N)CC1` [compound 18], the IC50 is less than 25 nM. `CC[C@H]1CN(c2ncc(C(=O)NC[C@@H](C)O)nc2Cl)CCN1C1CCN(C(=O)c2ccc(Cl)nc2N)CC1` [compound 11] yielded a concentration for half-maximal inhibition (IC50) of less than 25 nM. `CC[C@H]1CN(c2nc(N)c(C(=O)NCCO)nc2Cl)CCN1C1CCN(C2CCOc3cc(C#N)ccc32)CC1` (stereo partly drawn) [compound 148] returned an IC50 of more than 100 nM. Turning to `CC[C@H]1CN(c2nc(N)c(C(N)=O)nc2Cl)CCN1C1CCN(C(=O)c2cc(F)c(Cl)nc2N)CC1` [compound 41], the half-inhibitory concentration (IC50) was less than 25 nM. With `CC[C@H]1CN(c2nc(N)c(C(N)=O)nc2Cl)CCN1C1CCN(C(=O)c2ccc(-n3cccc3)nc2)CC1` [compound 88] the figure was more than 100 nM; with `CC[C@H]1CN(c2nc(N)c(C(=O)NCCO)nc2Cl)CCN1C1CCN(Cc2ccc(Cl)nn2)CC1` [compound 85], more than 100 nM; with `CC[C@H]1CN(c2nc(N)c(C(=O)NCc3cccs3)nc2Cl)CCN1C1CCN(C(=O)c2ccc(Cl)nc2N)CC1` [compound 62], 25 to 100 nM. With `CC[C@H]1CN(c2nc(N)c(C(=O)NCCO)nc2Cl)CCN1C1CCN(C(=O)c2ccc(Cl)nc2Cl)CC1` [compound 40] the figure was less than 25 nM; with `CC[C@H]1CN(c2nc(N)c(C(=O)NC3CC3)nc2Cl)CCN1C1CCN(Cc2cc(C)nn2C)CC1` [compound 74], more than 100 nM. With `CC[C@H]1CN(c2nc(N)c(C(=O)NC)nc2Cl)CCN1C1CCN(C(=O)c2ccc(Cl)nc2Cl)CC1` [compound 43] the figure was less than 25 nM. For the compound `CC[C@H]1CN(c2nc(N)c(C(=O)Nc3nccc(=O)[nH]3)nc2Cl)CCN1C1CCN(C(=O)c2ccc(Cl)nc2N)CC1` [compound 83], the IC50 is more than 100 nM. On to `CC[C@H]1CN(c2ncc(C(N)=O)nc2C)CCN1C1CCN(C(=O)c2ccc(C)nc2N)CC1` [compound 136], for which the IC50 was more than 100 nM. For `CC[C@H]1CN(c2nc(N)c(C(N)=O)nc2Cl)CCN1C1CCN(Cc2ccc(Cl)nc2N)CC1` [compound 31], the IC50 was less than 25 nM. In turn, `CC[C@H]1CN(c2nc(N)c(C(=O)NC)nc2Cl)CCN1C1CCN(C(=O)c2cc(Cl)nc(Cl)c2)CC1` [compound 116] returned an IC50 of more than 100 nM. For the compound `CC[C@H]1CN(c2nc(N)c(C(=O)NCCO)nc2Cl)CCN1C1CCN(C(=O)c2ccc(Cl)nc2N)CC1` [compound 7], the concentration for half-maximal inhibition (IC50) was less than 25 nM. As for `CC[C@H]1CN(c2ncc(C(N)=O)nc2Cl)CCN1C1CCN(C(=O)c2ccc(Cl)nc2N)CC1` [compound 10], the IC50 is less than 25 nM. With `CC[C@H]1CN(c2nc(N)c(C(=O)NC(=N)n3cccn3)nc2Cl)CCN1C1CCN(C(=O)c2ccc(Cl)nc2N)CC1` [compound 101] the figure was more than 100 nM; with `CC[C@H]1CN(c2nc(N)c(C(N)=O)nc2Cl)CCN1C1CCN(Cc2ccc(Cl)c3nc(C(F)(F)F)[nH]c23)CC1` [compound 142], more than 100 nM. With `CC[C@H]1CN(c2nc(N)c(C(=O)NN)nc2Cl)CCN1C1CCN(C(=O)c2cc(F)c(N)nc2Cl)CC1` [compound 73], the 50% inhibitory concentration (IC50) was more than 100 nM. With `CC[C@H]1CN(c2nc(N)c(C(=O)NCC3(O)CC3)nc2Cl)CCN1C1CCN(C(=O)c2ccc(Cl)nc2N)CC1` [compound 32] the figure was less than 25 nM; with `CC[C@H]1CN(c2nc(N)c(C(=O)NCC(C)(C)O)nc2Cl)CCN1C1CCN(C(=O)c2ccc(Cl)nc2N)CC1` [compound 82], more than 100 nM; with `CC[C@H]1CN(c2nc(N)c(C(N)=O)nc2Cl)CCN1C1CCN(C(=O)c2ccc(-n3cncn3)nc2)CC1` [compound 107], more than 100 nM.

For the compound `CC[C@H]1CN(c2nc(N)c(C(=O)Nc3cc(O)[nH]n3)nc2Cl)CCN1C1CCN(C(=O)c2ccc(Cl)nc2N)CC1` [compound 100], the IC50 was more than 100 nM. Consider `CC[C@H]1CN(c2ncc(C(=O)NC3CC3)nc2C)CCN1C1CCN(C(=O)c2ccc(C(F)(F)F)nc2N)CC1` [compound 176], for which the concentration for half-maximal inhibition (IC50) is less than 25 nM.

`CC[C@H]1CN(c2nc(N)c(C(=O)NN)nc2Cl)CCN1C1CCN(C(=O)c2cnc(Cl)c(Cl)c2)CC1` [compound 71] returned an IC50 of 25 to 100 nM.

Take `CC[C@H]1CN(c2ncc(C(=O)NC)nc2Cl)CCN1C1CCN(C(=O)c2ccc(Cl)nc2N)CC1` [compound 122]: the IC50 was less than 25 nM. Compound `CC[C@H]1CN(c2ncc(C(=O)OC)nc2C)CCN1C1CCN(C(=O)c2ccc(Cl)nc2N)CC1` [compound 161] gave a half-inhibitory concentration (IC50) of less than 25 nM.

In turn, `CC[C@H]1CN(c2nc(N)c(C(N)=O)nc2Cl)CCN1C1CCN(Cc2ccc(Cl)c3[nH]c(=O)[nH]c23)CC1` [compound 143] showed an IC50 of more than 100 nM. With `CC[C@H]1CN(c2nc(N)c(C(=O)NCCO)nc2Cl)CCN1C1CCN(Cc2ccc(Cl)nc2)CC1` [compound 20], the concentration for half-maximal inhibition (IC50) is less than 25 nM.

Source of the values: patent US7879838B2, “Heteroaryl substituted pyrazinyl-piperazine-piperidines with CXCR3 antagonist activity” (Schering Corporation, priority 2005, dated 2011).
